Reference: patent US4783482A, “Bis(thiocyanato)palladium(II)complexes” (Engelhard Corporation, priority 1985, dated 1988)
Several values for one entry are separate records, joined by “and”; a condition that tells them apart may be missing. Identical values can stand only once.

Legend:
S180 ascites [1] = test: Anti-tumor evaluation: % increase in life span (% ILS) and survivors, S180 ascites in female CFW Swiss mice; type: in vivo; details: for Best % ILS: best over doses
Protocol: The above-prepared compounds were evaluated against S180 ascites in female CFW Swiss mice. The mice were weighed (average weight: 20 g), placed into cages (four or six mice to a cage), and on day zero the mice were inoculated with 0.2 ml of a freshly prepared saline suspension (0.15 M NaCl) containing 1×10^7 tumor cells/ml or a total of 2×10^6 cells This inoculum was freshly prepared using "transfer" mice, which had been injected with tumor cells the previous week; it was obtained via the following steps: (1) the removal of cells from the peritoneal cavity of the sacrificed transfer mouse, (2) alternate centrifugation and washing operations (2-3 times with cold saline) to remove blood and other components, and (3) dilution of the volume of the packed cell with saline (1:3). A final centrifugation was carried out at 1000 RPM over a two minute period. A cell count was made on a 2,000-fold dilution of this 1:3 suspension by means of a Coulter Counter. A final dilution to 1×10^7 cells/ml was made, based on the average count.
On day 1, solutions of the test compounds were prepared, and each mouse in a set of four or six were injected with the same test compound at the same dosage. The doses were based on the average weight of the animals (cage weight). Also, beginning on day 1, two controls were employed containing six mice per control:
(1) Normal Control: This consisted solely of the carrier or diluent used in combination with the test compound; and
(2) Positive Control: This consisted solely of known anti-tumor agent cis-[Pt(NH3)2 Cl2 ] in saline (8 mg/kg) to test the response of the biological system.
The effectiveness of a test compound was measured in terms of the % increase in life span (%ILS) of the test mice relative to the Normal Control (Calculated from the day of tumor inoculation, i.e., day zero). To standardize the test data and permit intercomparisons, the day of evaluation was arbitrarily taken as that day corresponding to twice the mean life span (or average day of death) of the control. This established a practical upper limit of 100% on the %ILS attainable. For calculation purposes, the survivors of the day of evaluation were considered to have died on that day. The %ILS was calculated as follows: [formula] ILS values in excess of 50% were interpreted as antitumor activity, whereas values in excess of 75% indicated excellent antitumor activity.
All test compounds were evaluated in water containing 0.1-0.3% of the suspending agent "Klucel" (hydroxypropylcellulose).
Tables 3 and 4, infra, show the criticality of the ring size and the thiocyanato substituents, respectively. The protocols for determining effectiveness for the products in Tables 3 and 4 were identical to the procedure employed for determining the anti-tumor effectiveness of the products in Table 2.

S180 Ascites [2] = test: ED90, LD50 and therapeutic index, S180 ascites; type: in vivo, mice; parameters: ED90: unit not given here; details: for Therapeutic Index: mouse, in vivo
Protocol: The effective dose (ED90), lethal does (LD50) and therapeutic index (TI) were determined, via the method of Miller and Taiter (Reported by R. A. Turner, "Screening Methods in Pharmacology", Academic Press, New York, pages 61-62 (1976)).
In this study, ED90 represents the dose which causes a 50% increase in life span (ILS) in 90% of the test animals (mice), determined graphically. The LD50 value represents the lethal dose in 50% of said animals.

[3] = tested on: testicular and ovarian tumors; details: background; cited from earlier work
[4] = dose 5 mg/kg, on day of evaluation (twice mean life span of control)
[5] = dose 10 mg/kg, on day of evaluation
[6] = dose 20 mg/kg, on day of evaluation
[7] = dose 40 mg/kg, on day of evaluation
[8] = dose 80 mg/kg, on day of evaluation
[9] = dose 160 mg/kg, on day of evaluation

Structure (SMILES)	Best % ILS (S180 ascites [1])	% ILS (S180 ascites [1]; dose 5 mg/kg)	Survivors (S180 ascites [1]; [4])	% ILS (S180 ascites [1]; dose 10 mg/kg)	Survivors (S180 ascites [1]; [5])	% ILS (S180 ascites [1]; dose 20 mg/kg)	Survivors (S180 ascites [1]; [6])	% ILS (S180 ascites [1]; dose 40 mg/kg)	Survivors (S180 ascites [1]; [7])	% ILS (S180 ascites [1]; dose 80 mg/kg)	Survivors (S180 ascites [1]; [8])	% ILS (S180 ascites [1]; dose 160 mg/kg)	Survivors (S180 ascites [1]; [9])	Therapeutic Index (S180 Ascites [2])	also measured
N#C[S][Pd][S]C#N.NC1CCCCC1N (stereo not drawn) [Ex. 3, Bis(ThiocYanato)-1,2-Diaminocyclohexanepalladium(II)]	100% and 75%	0%	0 of 4	5%	0 of 4	1%	0 of 4	-1% and -3%	0 of 4	75% and 100%	3 of 4 and 4 of 4	39%	1 of 4	2.0 and 2.8	% ILS (S180 ascites [1]; dose 60 mg/kg): 22%; Survivors (S180 ascites [1]; dose 60 mg/kg, on day of evaluation): 0 of 4; % ILS (S180 ascites [1]; dose 100 mg/kg): 79%; Survivors (S180 ascites [1]; dose 100 mg/kg, on day of evaluation): 2 of 4; % ILS (S180 ascites [1]; dose 120 mg/kg): 36%; Survivors (S180 ascites [1]; dose 120 mg/kg, on day of evaluation): 2 of 4; % ILS (S180 ascites [1]; dose 140 mg/kg): 36%; Survivors (S180 ascites [1]; dose 140 mg/kg, on day of evaluation): 1 of 4
N.N.[Cl][Pt][Cl] [Positive Control, cis-[Pt(NH3)2 Cl2]]	–	–	–	–	–	–	–	–	–	–	–	–	–	–	Positive Control Survivors (S180 ascites [1]; 8 mg/kg in saline, run beside the test compound): 2 of 6 and 3 of 6 and 1 of 4 and 1 of 6 and 0 of 6; anti-tumor activity (in words) [3]: singularly successful in bringing about a regression of testicular and ovarian tumors
Cc1cc2c(cc1C)[NH][Pd]([S]C#N)([S]C#N)[NH]2 [Ex. 6, Bis(Thiocyanato)-4,5-Dimethyl-o-Phenylenediaminepalladium(II)]	65%	-1%	0 of 6	24%	0 of 6	10%	0 of 6	2%	0 of 6	13%	0 of 6	65%	2 of 6	1.8	ED90 (S180 Ascites [2]; dose which causes a 50% increase in life span in 90% of the mice, determined graphically): 200
